From ChEMBL document CHEMBL3286152, “Development of a fluorometric microplate antiadhesion assay using uropathogenic Escherichia coli and human uroepithelial cells” (J Nat Prod, 2014)
Converted amounts (≈) assume the structure as drawn. The source made the active and inactive calls. The rule behind the calls is not given here.

Experiments:
Escherichia coli [1] = assay: Inhibition of BacLight Green labeled Escherichia coli adherence to human UEC after 1 hr by flow cytometry analysis; type: functional, organism-based
Escherichia coli [2] = assay: Bactericidal activity against BacLight Green labeled Escherichia coli up to 30 ug/ml; type: ADME, organism-based
Escherichia coli [3] = assay: Inhibition of BacLight Green labeled Escherichia coli adherence to human UEC at 0.1 ug/ml after 1 hr by flow cytometry analysis; type: functional, organism-based
Escherichia coli [4] = assay: Inhibition of BacLight Green labeled Escherichia coli adherence to human UEC at 10 ug/ml after 1 hr by scanning electron microscopy analysis; type: functional, organism-based
Escherichia coli [5] = assay: Induction of morphological changes in BacLight Green labeled Escherichia coli assessed as alteration of fimbriae structure and distribution by fusing fimbriae at 10 ug/ml after 1 hr by transmission electron microscopy analysis; type: functional, organism-based
Escherichia coli [6] = assay: Inhibition of BacLight Green labeled Escherichia coli adherence to human UEC at 1 ug/ml after 1 hr by flow cytometry analysis; type: functional, organism-based
Escherichia coli [7] = assay: Inhibition of BacLight Green labeled Escherichia coli adherence to human UEC at 50 ug/ml after 1 hr by scanning electron microscopy analysis; type: functional, organism-based
Escherichia coli [8] = assay: Induction of morphological changes in BacLight Green labeled Escherichia coli assessed as decrease of number of fimbriae at 50 ug/ml after 1 hr by transmission electron microscopy analysis; type: functional, organism-based

Row | SMILES | inhibition (Escherichia coli [1]) | Activity (Escherichia coli [2]) | IC50 (Escherichia coli [1]) | inhibition (Escherichia coli [3]) | inhibition (Escherichia coli [4]) | Activity (Escherichia coli [5]) | inhibition (Escherichia coli [6]) | inhibition (Escherichia coli [7]) | Activity (Escherichia coli [8])
1 | O=C(/C=C/c1ccc(O)c(O)c1)O[C@@H]1C[C@](O)(C(=O)O)C[C@@H](O)[C@H]1O [CHLOROGENIC ACID] | inactive | Non-toxic |  |  |  |  |  |  | 
2 | O=c1c(O)c(-c2cc(O)c(O)c(O)c2)oc2cc(O)cc(O)c12 [MYRICETIN] | Dose-dependent effect | Non-toxic | 0.88 µg/mL (≈ 2.77 µM) | Active | Active | Active |  |  | 
3 | Oc1cc(O)c2c(c1)O[C@@]1(c3ccc(O)c(O)c3)Oc3cc(O)c4c(c3[C@@H]2[C@H]1O)O[C@H](c1ccc(O)c(O)c1)[C@H](O)C4 [PROANTHOCYANIDIN A2] | inactive | Non-toxic |  |  |  |  |  |  | 
4 | Oc1cc(O)c2c(c1)O[C@H](c1ccc(O)c(O)c1)[C@H](O)[C@H]2c1c(O)cc(O)c2c1O[C@H](c1ccc(O)c(O)c1)[C@@H](O)C2 [PROCYANIDIN B1] | Dose-dependent effect | Non-toxic |  |  |  |  | Active |  | 
5 | Oc1cc(O)c2c(c1)O[C@H](c1ccc(O)c(O)c1)[C@H](O)[C@H]2c1c(O)cc(O)c2c1O[C@H](c1ccc(O)c(O)c1)[C@H](O)C2 [PROCYANIDIN B2] | Dose-dependent effect | Non-toxic |  |  |  |  | Active | Active | Active
6 | Oc1cc(O)c2c(c1)O[C@H](c1ccc(O)c(O)c1)[C@H](O)[C@H]2c1c(O)cc(O)c2c1O[C@H](c1ccc(O)c(O)c1)[C@H](O)[C@H]2c1c(O)cc(O)c2c1O[C@H](c1ccc(O)c(O)c1)[C@H](O)C2 [PROCYANIDIN C1] | Dose-dependent effect | Non-toxic |  |  |  |  | Active |  | 
7 | O=c1c(O)c(-c2ccc(O)c(O)c2)oc2cc(O)cc(O)c12 [QUERCETIN] | Dose-dependent effect | Non-toxic | 3.8 µg/mL (≈ 12.6 µM) | Active |  |  |  |  | 
